Assays:
Conditions in all cases: substance 10^−9M
[1] = test system: human keratinocyte cell line (HaCaT); assay: Cytokine secretion on protein level in activated human keratinocyte cell line HaCaT (13-plex FACS / Luminex, supernatant); assay type: cell-based
Outline: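 Primary T-cells from peripheral blood of healthy volunteers, or HaCaT cells, were activated with PMA/Ionomycin or IFN-γ for 48 h and treated with tripeptides. Supernatants were collected 48 h and 72 h after stimulation and cytokines (IL-1, IL-2, IL-6, IL-12p70, IL-17, IFN-γ, TNF-α) were measured by 13-plex FACS.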

[2] = test system: primary human T-cells; assay: Cytokine secretion on protein level in activated primary human T-cells (13-plex FACS / Luminex, supernatant); assay type: cell-based
Outline: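 PMA/Ionomycin- or IFN-γ-activated cells (48 h) treated with tripeptides; supernatant 13-plex FACS at 48 h and 72 h post-stimulation. Luminex run: PMA/Ionomycin plus compound at 10^−7, 10^−9, 10^−11 M; IFN-γ, IL-17, IL-10 for T cells, IFN-γ for HaCaT.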

[3] = test system: primary murine T-cells; assay: Cytokine secretion on protein level in activated primary murine T-cells (13-plex FACS / Luminex, supernatant); assay type: cell-based, C57BL/6 mice
Outline: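 T-cells from secondary lymphatic organs of naïve C57BL/6 mice, stimulated with PMA/Ionomycin or IFN-γ; supernatant cytokines measured by 13-plex FACS 48 h and 72 h after stimulation. In another run, PMA/Ionomycin-stimulated cells received compounds at 10^−7, 10^−9 and 10^−11 M, with IFN-γ, IL-17 and IL-10 measured by Luminex.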

[4] = HaCaT stimulated with PMA/Ionomycin
[5] = primary human T-cells stimulated with IFN-γ
[6] = primary human T-cells stimulated with PBS
[7] = primary human T-cells stimulated with PMA/Ionomycin
[8] = primary murine T-cells stimulated with IFN-γ
[9] = primary murine T-cells stimulated with PBS
[10] = primary murine T-cells stimulated with PMA/Ionomycin

## H-(L)-Om-(L)-Pro-Aib-OH [Example 11]
[1]; HaCaT stimulated with IFN-γ
  IL-1 cytokine concentration: 31.54 pg/mL
  IL-2 cytokine concentration: 0 pg/mL
  IL-4 cytokine concentration: 0 pg/mL
  IL-5 cytokine concentration: 0 pg/mL
  IL-6 cytokine concentration: 265.29 pg/mL
  IL-9 cytokine concentration: 0 pg/mL
  IL-10 cytokine concentration: 0 pg/mL
  IL-12p70 cytokine concentration: 0 pg/mL
  IL-13 cytokine concentration: 989.21 pg/mL
  IL-17 cytokine concentration: 0 pg/mL
  IL-22 cytokine concentration: 0 pg/mL
  TNF-α cytokine concentration: 0 pg/mL
[1]; HaCaT stimulated with PBS
  IFN-γ cytokine concentration: 0 pg/mL
  IL-1 cytokine concentration: 0 pg/mL
  IL-2 cytokine concentration: 0 pg/mL
  IL-4 cytokine concentration: 99.64 pg/mL
  IL-5 cytokine concentration: 0 pg/mL
  IL-6 cytokine concentration: 42.94 pg/mL
  IL-9 cytokine concentration: 1.97 pg/mL
  IL-10 cytokine concentration: 43.56 pg/mL
  IL-12p70 cytokine concentration: 0 pg/mL
  IL-13 cytokine concentration: 0 pg/mL
  IL-17 cytokine concentration: 0 pg/mL
  IL-22 cytokine concentration: 0 pg/mL
  TNF-α cytokine concentration: 0 pg/mL
[1]; [4]
  IFN-γ cytokine concentration: 57.58 pg/mL
  IL-1 cytokine concentration: 0 pg/mL
  IL-2 cytokine concentration: 19.32 pg/mL
  IL-4 cytokine concentration: 0 pg/mL
  IL-5 cytokine concentration: 0 pg/mL
  IL-6 cytokine concentration: 207.76 pg/mL
  IL-9 cytokine concentration: 0 pg/mL
  IL-10 cytokine concentration: 87.41 pg/mL
  IL-12p70 cytokine concentration: 0 pg/mL
  IL-13 cytokine concentration: 0 pg/mL
  IL-17 cytokine concentration: 0 pg/mL
  IL-22 cytokine concentration: 0 pg/mL
  TNF-α cytokine concentration: 0 pg/mL
[2]; [5]
  IL-1 cytokine concentration: 0 pg/mL
  IL-2 cytokine concentration: 212.98 pg/mL
  IL-4 cytokine concentration: 0 pg/mL
  IL-5 cytokine concentration: 83.3 pg/mL
  IL-6 cytokine concentration: 108.08 pg/mL
  IL-9 cytokine concentration: 8.15 pg/mL
  IL-10 cytokine concentration: 50.11 pg/mL
  IL-12p70 cytokine concentration: 0 pg/mL
  IL-13 cytokine concentration: 180.41 pg/mL
  IL-17 cytokine concentration: 0 pg/mL
  IL-22 cytokine concentration: 0 pg/mL
  TNF-α cytokine concentration: 52.55 pg/mL
[2]; [6]
  IL-1 cytokine concentration: 0 pg/mL
  IL-2 cytokine concentration: 0 pg/mL
  IL-4 cytokine concentration: 121.69 pg/mL
  IL-5 cytokine concentration: 0 pg/mL
  IL-6 cytokine concentration: 172.14 pg/mL
  IL-9 cytokine concentration: 10.84 pg/mL
  IL-10 cytokine concentration: 0 pg/mL
  IL-12p70 cytokine concentration: 0 pg/mL
  IL-13 cytokine concentration: 187.86 pg/mL
  IL-17 cytokine concentration: 0 pg/mL
  IL-22 cytokine concentration: 0 pg/mL
  INF-α cytokine concentration: 505.68 pg/mL
  TNF-α cytokine concentration: 52.55 pg/mL
[2]; [7]
  IL-1 cytokine concentration: 677.32 pg/mL
  IL-2 cytokine concentration: 3920.52 pg/mL
  IL-4 cytokine concentration: 112.94 pg/mL
  IL-5 cytokine concentration: 525.15 pg/mL
  IL-6 cytokine concentration: 1474.06 pg/mL
  IL-9 cytokine concentration: 380.3 pg/mL
  IL-10 cytokine concentration: 563.89 pg/mL
  IL-12p70 cytokine concentration: 0 pg/mL
  IL-13 cytokine concentration: 1258.74 pg/mL
  IL-17 cytokine concentration: 3306.09 pg/mL
  IL-22 cytokine concentration: 0 pg/mL
  INF-α cytokine concentration: 9554.27 pg/mL
  TNF-α cytokine concentration: 2209.22 pg/mL
[3]; [8]
  IL-1 cytokine concentration: 100.08 pg/mL
  IL-2 cytokine concentration: 208.9 pg/mL
  IL-4 cytokine concentration: 53.65 pg/mL
  IL-5 cytokine concentration: 531.87 pg/mL
  IL-6 cytokine concentration: 193.06 pg/mL
  IL-10 cytokine concentration: 1383.43 pg/mL
  IL-13 cytokine concentration: 0 pg/mL
  IL-17 cytokine concentration: 39.84 pg/mL
  IL-21 cytokine concentration: 263.02 pg/mL
  IL-22 cytokine concentration: 31.59 pg/mL
  IL-27 cytokine concentration: 42.99 pg/mL
  TNF-α cytokine concentration: 19.71 pg/mL
[3]; [9]
  IFN-γ cytokine concentration: 8321.6 pg/mL
  IL-1 cytokine concentration: 75.71 pg/mL
  IL-2 cytokine concentration: 204.62 pg/mL
  IL-4 cytokine concentration: 0 pg/mL
  IL-5 cytokine concentration: 459.03 pg/mL
  IL-6 cytokine concentration: 172.33 pg/mL
  IL-10 cytokine concentration: 905.76 pg/mL
  IL-13 cytokine concentration: 0 pg/mL
  IL-17 cytokine concentration: 0 pg/mL
  IL-21 cytokine concentration: 0 pg/mL
  IL-22 cytokine concentration: 66.43 pg/mL
  IL-27 cytokine concentration: 141.82 pg/mL
  TNF-α cytokine concentration: 0 pg/mL
[3]; [10]
  IFN-γ cytokine concentration: 2756.75 pg/mL
  IL-1 cytokine concentration: 178.78 pg/mL
  IL-2 cytokine concentration: 261.53 pg/mL
  IL-4 cytokine concentration: 117.11 pg/mL
  IL-5 cytokine concentration: 513.39 pg/mL
  IL-6 cytokine concentration: 333.86 pg/mL
  IL-10 cytokine concentration: 1302.16 pg/mL
  IL-13 cytokine concentration: 0 pg/mL
  IL-17 cytokine concentration: 244.88 pg/mL
  IL-21 cytokine concentration: 0 pg/mL
  IL-22 cytokine concentration: 94.31 pg/mL
  IL-27 cytokine concentration: 99.05 pg/mL
  TNF-α cytokine concentration: 86.61 pg/mL

From patent US10954269B2, “Anti-inflammatory tripeptides” (Dr. August Wolff Gmbh & Co. KG Arzneimittel, priority 2013, dated 2021)
